Measured values: patent US5491220A, “Surface loop structural analogues of fibroblast growth factors” (Yeda Research and Development Co., Ltd., priority 1994, dated 1996)

Key:
[1] = tested on: cell-associated urokinase-type plasminogen activator (uPA) activity in ABAE cells; assay: Urokinase-type plasminogen activator induction in ABAE cells; format: cell-based, bovine; conditions: 24 hours, compared with FGF-2
Experimental: Urokinase-type plasminogen activator induction by the FGF mutants is evaluated. Adult bovine aortic endothelial (ABAE) cells are seeded at 20,000 cells/well in 96-well plates and maintained in DMEM containing 10% calf serum (Hyclone, Logan, Utah) supplemented with penicillin (100 units/ml), streptomycin (100 μg/ml) and L-glutamine (2 mM) and different concentrations of FGF-2 or mutants. After 24 hours, the cells are washed with phosphate-buffered saline and lysed in 60 mM Tris-HCl, pH 8.5, containing 0.05% Triton® X-100. Cell-associated urokinase-type plasminogen activator (uPA) activity is measured as described by Presta, et al., cited above, using the plasmin chromogenic substrate D-norleucyl-hexahydrotyrosyllysine p-nitroanilide acetate (American Diagnostics, Greenwich, Conn.). Cell-associated protein concentrations are determined using Coomassie blue binding to protein. The results are plotted in FIG. 5.

ABAE cells = assay: In vitro angiogenesis: capillary-like tube formation by ABAE cells on collagen gel; format: cell-based, bovine; conditions: ABAE cells on type I collagen gel, 48 hours; compared with wild-type FGF-2
Experimental: In vitro anglogenesis evaluations are made by observing whether the mutants induce capillary-like structures in ABAE cells cultured on a 3-dimensionalcollagen gel. Three-dimensional collagen gel plates (24-well) are prepared by adding 0.5 ml chilled solution of 0.7 mg/ml rat-tail type I collagen (Becton Dickinson Labwares, Bedford, Mass.) containing DMEM and adjusting to neutral pH with NaHCO3 to each well. After formation of collagen gel (about 1-2 mm thickness), ABAE cells are seeded at 50,000 cells/well. The cultures are maintained at 37° C. in DMEM containing 10% calf serum (Hyclone, Logan, Utah) supplemented with penicillin (100 units/ml), streptomycin (100 μg/ml) and L-glutamine (2 mM) until the cultures reach confluency, usually in 5 days by which time the cells form a monolayer on the gel. The medium is then replaced with fresh medium containing different concentrations of FGF-2 or mutants. […]
The abundance of the capillary-like structures formed by ABAE cells is analyzed by using a Kontron IBAS Image Analyzer assisted with a Hamamatsu C2400 video camera and a Zeiss Axioshop microscope. […] The extent of in vitro angiogenesis is then measured as a percentage of the white areas. […] Three to four areas of each well are examined by image analysis and the mean value and standard deviation are determined. […]

[2] = tested on: FGF receptor type 1 (FGFR1); assay: Competition binding to FGF-receptor type 1 on NIH 3T3 cells; conditions: compared with FGF-2
[3] = tested on: soluble FGF receptor 1 (FGFR-1; flg); assay: Competition binding to soluble FGFR1 (displacement of 125I-FGF-2); parameters: species or system murine; conditions: 200 ng/ml heparin
Experimental: Binding of FGF proteins to different FGF receptors are determined in this example, by measuring the degree of competition for binding to different types of FGF-receptor proteins between a radioiodinated FGF protein and various unlabelled proteins, or by the direct binding of radioiodinated FGF's to various receptor proteins. Binding studies are confirmed by chemical cross-linking of the radioiodinated FGF to soluble receptors in the presence and absence of excess unlabelled FGF.
Soluble FGF receptor proteins are constructed by cloning of the extracellular region of murine FGF receptor 1 (FGFR-1; flg), FGF receptor 2 (FGFR-2; bek) or the KGF receptor (FGFR(IIIb); K-sam) into the alkaline phosphatase-tag expression vector, which encodes for a secreted form of placental alkaline phosphatase (AP). The FGF receptor alkaline phosphatase (FRAP) plasmids are cotransfected into NIH 3T3 cells by electroporation with a selectable neomycin resistance gene. Clonies are selected in G418 (600 μg/ml) and screened for secreted AP enzyme activity in the conditioned medium. Clones of each receptor which produced a high level of AP activity (2 to 4 A405 units/min/ml) are then used to produce conditioned medium for binding assays.
Components of the soluble receptor binding reaction mixture include FRAP-conditioned medium (0.24 OD units/min), 2 ng/ml^125 I-FGFs and 200 ng/ml heparin. The FGF:heparin:FRAP terniary complex is immunoprecipitated with 20 μl of a 1:1 slurry of anti-AP monoclonal antibodies coupled to protein A Sepharose®. All components are mixed at room temperature. The total volume is adjusted to 200 μl by addition of DMEM containing 0.1% bovine serum albumin. Binding is allowed to proceed for 1 to 2 hours at 24° C., after which time bound receptor complex or the ligand is recovered by centrifugation at 4° C. (10 s at 2,000×g). The pelleted material is washed twice with 500 μl of an ice cold buffer containing HEPES (20 mM), NaCl (150 mM), glycerol (10%) and Triton® X-100 (1%). ^125 I-FGF binding is quantitated by counting of the samples in a gamma counter (LKB). Alternatively, AP enzyme activity of the FRAP protein is determined by transferring the FRAP receptor bound to […] to a flat-bottom microtiter plate in a volume of 50 μl of PBS. The reaction is initiated by addition of substrate (50 μl of 2× solution of AP assay buffer containing 2M diethanoiamine, 1 mM MgCl2, 20 mM homoarginine and 12 mM p-nitrophenyl phosphate). The reaction is followed at room temperature at 405 nm in a kinetic microplate reader.

[4] = Affinity for immobilized heparin (NaCl elution from heparin column); format: binding; conditions: TSK-heparin column
Experimental: Cells from 1 liter cultures are harvested by centrifugation, resuspended in 30 ml of 50 mM Tris-HCl, pH 7.5 containing 0.1 mM EDTA and 0.6M NaCl, and disrupted by treatment with lysozyme (10 μg/ml) for 20 min at 4° C. followed by sonication (6×30 sec pulses). The lysates are clarified by centrifugation (10,000×g; 20 min) and the supernatant solutions incubated with 5 ml of hydrated heparin Sepharose (Pharmacia/LKB) at 4° C. for 1 hour with constant rotation. The resin is isolated by filtration on 0.8 μm filter apparatus (Nalgene), washed extensively with 10 mM Tris-HCl pH 7.4 containing 0.6M NaCl and bound protein eluted with Tris buffer containing 3M NaCl (25 ml). The 3M NaCl eluent is diluted 6-fold with Tris buffer and loaded onto a TSK heparin 5PW column (0.21×15 cm; The Nest Group, MA) and the column developed using a linear NaCl gradient (0.6 to 2M) in 90 min at a flow rate of […].
NaCl elution from heparin-Sepharose® is about 0.7M NaCl, compared with 1.4M NaCl for the wild-type protein. The molarity of NaCl required to elute the LK mutant is similar to that required to elute FGF-7.

Substance	Capability to induce urokinase-type plasminogen activator [1]	Induction of tube formation (capillary-like structures) (ABAE cells)	Competition binding curve to FGF receptor type 1 on NIH 3T3 cells [2]	Binding to soluble FGFR1 (competition with 125I-FGF-2) [3]	NaCl concentration at elution from TSK-heparin column [4]
FGF-2LA: human FGF-2 with loop residues 118-122 replaced by Lys-Lys-His-Ala-Glu-Lys-His from bovine FGF-1 (SEQ ID NO 16) (KKHAEKH; printed: Lys-Lys-His-Ala-Glu-Lys-His)	significantly reduced	comparable with the wildtype	identical to that for FGF-2	bind equally well	about 1.5 M
FGF-2LI: human FGF-2 with loop residues 118-122 replaced by Ala-Gln-Phe-Pro-Asn from human interleukin-1β (SEQ ID NO 15)	significantly reduced	much less than that by wild-type FGF-2	identical to that for FGF-2	bind equally well	about 1.5 M
